Structures can show the parent of a compound that is named as a salt. Where two headings read alike, the source gives them in different places. Each block holds one molecule with its values, some of them ahead of it.
What was measured:
[1] = Iron (III) complex stability constant Logβ3; assay type: physicochemical
[2] = pM for Iron III (affinity for iron as Fe III); assay type: physicochemical; conditions: negative log ferric ion concentration; total iron 10^-6 M, ligand 10^-5 M
Excerpt: The present inventors now have provided a group of 3-hydroxypyridin-4-one iron chelators having improved properties as compared to the prior art as assessed against the criteria set out above. […] Preferred compounds have efficiency of iron mobilisation of in excess of 52% when given orally to rats. […]

[3] = Distribution coefficient DpH7.4 (Kpart), octanol/MOPS pH 7.4; assay type: physicochemical
Excerpt: The requirements for orally active chelators are set out in Table 4 of Hider et al as (i) good absorption from tile gastrointestinal tract, (ii) efficient liver extraction, (iii) poor entry into peripheral cells such as thymus, muscle, heart and bone marrow and (iv) poor ability to penetrate the blood-brain barrier and maternal/placental barriers.

pKa of the ligand = assay type: physicochemical
[4] = Iron III Mobilisation Efficacy Assay in Rat: Oral Administration; assay type: in vivo; conditions: for Efficacy: iron mobilisation less control
Protocol: Control rats were given an equivalent volume of water. The rats were placed in individual metabolic cages and their urine and faeces collected. One hour after the administration they were allowed access to food, with no restriction on water being made throughout the study period. The investigation was terminated 24 hours after the ^59Fe ferritin administration when rats were sacrificed and their livers and gastrointestinal tracts, including all contents including faeces, were removed for gamma counting.

[5] = method marked (p), first pKa, read-out: pKa, first value (p)
[6] = method marked (p), second pKa, read-out: pKa, second value (p)
[7] = method marked (s), first pKa, read-out: pKa, first value (s)
[8] = method marked (s), second pKa, read-out: pKa, second value (s)

Compound: Cn1ccc(=O)c(O)c1CO (as salt: hydrochloride) [CP364, 1-Methyl-2-hydroxymethyl-3-hydroxy-pyridin-4(1H)-one hydrochloride]
melting point: 157 to 159 °C

Compound: CCn1c(C)cc(=O)c(O)c1CO [CP369, 1-Ethyl-2-hydroxymethyl-3-hydroxy-6-methyl-pyridin-4(1H)-one hydrochloride]
Logβ3 [1]: 35.6
pMpH 7.45 [2]: 20.35
DpH 7.4 [3]: 0.223
pKa, first value (s) (pKa of the ligand; method marked (s), first pKa): 3.28
pKa, second value (s) (pKa of the ligand; method marked (s), second pKa): 9.38

Compound: COCc1cc(=O)c(O)c(COC)n1C (as salt: hydrochloride) [CP388, 2,6-Dimethoxymethyl-1-methyl-3-hydroxypyridin-4(1H)-one hydrochloride]
melting point: 161 to 163 °C

Compound: O=C(OCCCn1ccc(=O)c(O)c1CO)c1ccccc1 (as salt: hydrochloride) [CP367, 1-[(3-Benzoyloxy)propyl]-2-hydroxymethyl-3-hydroxy-pyridin-4(1H)-one hydrochloride]
melting point: 142 to 143 °C

Compound: Cn1c(CO)cc(=O)c(O)c1CO [CP387]
DpH 7.4 [3]: 0.04

Compound: CCn1c(C)cc(=O)c(O)c1COC [CP370, 1-Ethyl-2-methoxymethyl-3-hydroxy-6-methyl-pyridin-4(1H)-one hydrochloride]
DpH 7.4 [3]: 1.08

Compound: CCn1ccc(=O)c(O)c1C(C)O (stereo not shown) [CP365, 1-Ethyl-2-(1-hydroxyethyl)-3-hydroxy-pyridin-4(1H)-one hydrochloride]
Logβ3 [1]: 34.8
pMpH 7.45 [2]: 21.3
DpH 7.4 [3]: 0.27
pKa, first value (s) (pKa of the ligand; method marked (s), first pKa): 3.11
pKa, second value (s) (pKa of the ligand; method marked (s), second pKa): 8.74

Compound: CCn1ccc(=O)c(O)c1CO (as salt: hydrochloride) [CP359, 1-Ethyl-2-hydroxymethyl-3-hydroxy-pyridin-4(1H)-one hydrochloride]
melting point: 168 to 169 °C

Compound: CCn1c(C)cc(=O)c(O)c1COC (as salt: hydrochloride) [CP370, 1-Ethyl-2-methoxymethyl-3-hydroxy-6-methyl-pyridin-4(1H)-one hydrochloride]
melting point: 174 to 176 °C

Compound: COCc1cc(=O)c(O)c(COC)n1C [CP388, 2,6-Dimethoxymethyl-1-methyl-3-hydroxypyridin-4(1H)-one hydrochloride]
Logβ3 [1]: 34.5
pMpH 7.45 [2]: 21.1
DpH 7.4 [3]: 0.40
pKa (pKa of the ligand; [5]): 2.93
pKa (pKa of the ligand; [6]): 8.87
pKa (pKa of the ligand; [7]): 2.73
pKa (pKa of the ligand; [8]): 8.77

Compound: CCn1ccc(=O)c(O)c1CO [CP359, 1-Ethyl-2-hydroxymethyl-3-hydroxy-pyridin-4(1H)-one hydrochloride]
Logβ3 [1]: 35.25
pMpH 7.45 [2]: 20.96
DpH 7.4 [3]: 0.14
pKa, first value (s) (pKa of the ligand; method marked (s), first pKa): 2.88
pKa, second value (s) (pKa of the ligand; method marked (s), second pKa): 9.05

Compound: O=C(OCCCn1ccc(=O)c(O)c1CO)c1ccccc1 [CP367, 1-[(3-Benzoyloxy)propyl]-2-hydroxymethyl-3-hydroxy-pyridin-4(1H)-one hydrochloride]
DpH 7.4 [3]: 5.61
pKa (pKa of the ligand; [5]): 2.6
pKa (pKa of the ligand; [6]): 9.07
pKa (pKa of the ligand; [7]): 2.7
pKa (pKa of the ligand; [8]): 8.95

Compound: CC(O)c1c(O)c(=O)ccn1CCCO (stereo not shown) (as salt: hydrochloride) [CP372, 1-(3-hydroxypropyl)-2-(1-hydroxyethyl)-3-hydroxy-pyridin-4(1H)-one hydrochloride]
melting point: 117 to 120 °C

Compound: CC(O)c1c(O)c(=O)ccn1CCCO (stereo not shown) [CP372, 1-(3-hydroxypropyl)-2-(1-hydroxyethyl)-3-hydroxy-pyridin-4(1H)-one hydrochloride]
Logβ3 [1]: 34.67
pMpH 7.45 [2]: 21.48
DpH 7.4 [3]: 0.075
pKa, first value (s) (pKa of the ligand; method marked (s), first pKa): 2.96
pKa, second value (s) (pKa of the ligand; method marked (s), second pKa): 8.69

Compound: CCn1c(C)cc(=O)c(O)c1CO (as salt: hydrochloride) [CP369, 1-Ethyl-2-hydroxymethyl-3-hydroxy-6-methyl-pyridin-4(1H)-one hydrochloride]
melting point: 160 to 162 °C

The next lines start with results.

melting point: 208 to 212 °C
Compound: Cc1cc(=O)c(O)c(C(C)O)n1C (stereo not shown) (as salt: hydrochloride) [CP361, 1,6-Dimethyl-2-(1-hydroxyethyl)-3-hydroxy-pyridin-4(1H)-one hydrochloride]

melting point: 225 to 227 °C
Compound: CCC(OC)c1c(O)c(=O)cc(C)n1C (stereo not shown) (as salt: hydrochloride) [CP375, 1,6-Dimethyl-2-(1-methoxypropyl)-3-hydroxy-pyridin-4(1H)-one hydrochloride]

Logβ3 [1]: 35.34
pMpH 7.45 [2]: 22.46
DpH 7.4 [3]: 0.30
pKa (pKa of the ligand; [5]): 2.81
pKa (pKa of the ligand; [6]): 8.74
pKa (pKa of the ligand; [7]): 2.64
pKa (pKa of the ligand; [8]): 8.56
Compound: Cc1cc(=O)c(O)c(C(=O)NC(C)C)n1C [CP504, 1,6-Dimethyl-3-hydroxy-4(1H)-pyridinone-2-carboxy-(N-isopropyl)-amide hydrochloride]

DpH 7.4 [3]: 3.32
Compound: CCOC(C)c1c(O)c(=O)cc(C)n1C (stereo not shown) [CP373, 1,6-Dimethyl-2-(1-ethoxyethyl)-3-hydroxy-pyridin-4(1H)-one hydrochloride]

DpH 7.4 [3]: 3.85
Compound: CCC(OC)c1c(O)c(=O)cc(C)n1C (stereo not shown) [CP375, 1,6-Dimethyl-2-(1-methoxypropyl)-3-hydroxy-pyridin-4(1H)-one hydrochloride]
Iron Mobilisation ([4]; 150 μmol/kg): 40.2 ± 8.5%
Efficacy ([4]; 150 μmol/kg): 36.3%
Iron Mobilisation ([4]; 450 μmol/kg): 72.0 ± 8.2%
Efficacy ([4]; 450 μmol/kg): 68.1%

melting point: 205 to 207 °C
Compound: COC(C)c1c(O)c(=O)cc(C)n1C (stereo not shown) (as salt: hydrochloride) [CP363, 1,6-Dimethyl-2-(1-methoxyethyl)-3-hydroxy-pyridin-4(1H)-one hydrochloride]

melting point: 238 °C (dec.)
Compound: CNC(=O)c1c(O)c(=O)cc(C)n1C (as salt: hydrochloride) [CP502, 1,6-Dimethyl-3-hydroxy-4(1H)-pyridinone-2-carboxy-(N-methyl)-amide hydrochloride]

Logβ3 [1]: 34.63
pMpH 7.45 [2]: 22.73
DpH 7.4 [3]: 0.02
pKa (pKa of the ligand; [5]): 2.65
pKa (pKa of the ligand; [6]): 8.28
pKa (pKa of the ligand; [7]): 2.57
pKa (pKa of the ligand; [8]): 8.19
Compound: Cc1cc(=O)c(O)c(C(=O)NCCO)n1C [CP507, 1,6-Dimethyl-3-hydroxy-4(1H)-pyridinone-2-carboxy-(N-2′-hydroxyethyl)-amide hydrochloride]

DpH 7.4 [3]: 1.09
pKa (pKa of the ligand; [5]): 3.2
pKa (pKa of the ligand; [6]): 9.44
pKa (pKa of the ligand; [7]): 3.22
pKa (pKa of the ligand; [8]): 9.43
Compound: COC(C)c1c(O)c(=O)cc(C)n1C (stereo not shown) [CP363, 1,6-Dimethyl-2-(1-methoxyethyl)-3-hydroxy-pyridin-4(1H)-one hydrochloride]
Iron Mobilisation ([4]; 150 μmol/kg): 40.7 ± 2.4%
Efficacy ([4]; 150 μmol/kg): 36.8%
Iron Mobilisation ([4]; 300 μmol/kg): 66.9 ± 8.7%
Efficacy ([4]; 300 μmol/kg): 63.0%
Iron Mobilisation ([4]; 450 μmol/kg): 73.5 ± 8.1%
Efficacy ([4]; 450 μmol/kg): 69.6%

DpH 7.4 [3]: 0.42
Compound: COCc1c(O)c(=O)cc(C)n1C [CP362]

Logβ3 [1]: 34.88
pMpH 7.45 [2]: 22.57
DpH 7.4 [3]: 0.04
pKa (pKa of the ligand; [5]): 2.62
pKa (pKa of the ligand; [6]): 8.34
pKa (pKa of the ligand; [7]): 2.5
pKa (pKa of the ligand; [8]): 8.35
Compound: COCCNC(=O)c1c(O)c(=O)cc(C)n1C [CP506, 1,6-Dimethyl-3-hydroxy-4(1H)-pyridinone-2-carboxy-(N-2′-methoxyethyl)-amide hydrochloride]

melting point: 195 to 199 °C
Compound: CCOC(C)c1c(O)c(=O)cc(C)n1C (stereo not shown) (as salt: hydrochloride) [CP373, 1,6-Dimethyl-2-(1-ethoxyethyl)-3-hydroxy-pyridin-4(1H)-one hydrochloride]

melting point: 221 to 223 °C
Compound: CCC(O)c1c(O)c(=O)cc(C)n1C (stereo not shown) (as salt: hydrochloride) [CP374, 1,6-Dimethyl-2-(1-hydroxypropyl)-3-hydroxy-pyridin-4(1H)-one hydrochloride]

melting point: 204 to 206 °C
Compound: COCCNC(=O)c1c(O)c(=O)cc(C)n1C (as salt: hydrochloride) [CP506, 1,6-Dimethyl-3-hydroxy-4(1H)-pyridinone-2-carboxy-(N-2′-methoxyethyl)-amide hydrochloride]

Logβ3 [1]: 35.13
pMpH 7.45 [2]: 23.46
DpH 7.4 [3]: 0.16
pKa (pKa of the ligand; [5]): 2.61
pKa (pKa of the ligand; [6]): 8.1
pKa (pKa of the ligand; [7]): 2.61
pKa (pKa of the ligand; [8]): 8.1
Compound: Cc1cc(=O)c(O)c(C(=O)N(C)C)n1C [CP508, 1,6-Dimethyl-3-hydroxy-4(1H)-pyridinone-2-carboxy-(N,N-dimethyl)-amide hydrochloride]

melting point: 178 to 181 °C
Compound: Cc1cc(=O)c(O)c(C(=O)NCCO)n1C (as salt: hydrochloride) [CP507, 1,6-Dimethyl-3-hydroxy-4(1H)-pyridinone-2-carboxy-(N-2′-hydroxyethyl)-amide hydrochloride]

melting point: 140 to 143 °C
Compound: Cc1cc(=O)c(O)c(CO)n1C (as salt: hydrochloride) [CP360, 1,6-Dimethyl-2-hydroxymethyl-3-hydroxy-pyridin-4(1H)-one hydrochloride]

melting point: 219 °C (dec.)
Compound: Cc1cc(=O)c(O)c(C(=O)N(C)C)n1C (as salt: hydrochloride) [CP508, 1,6-Dimethyl-3-hydroxy-4(1H)-pyridinone-2-carboxy-(N,N-dimethyl)-amide hydrochloride]

Reference: patent US6448273B1, “Orally active iron (III) chelators” (BTG International Limited, priority 1997, dated 2002)
